From patent publication US8207193B2 (priority 2006, dated 2012)

Each compound was assayed against human muscarinic acetylcholine M3 receptor (M3-ACh) (Homo sapiens, UniProt P20309) (assay: biochemical). Details: M3 binding IC50.
Assay type: binding

Chain of human muscarinic acetylcholine M3 receptor (M3-ACh) (P20309 whole entry): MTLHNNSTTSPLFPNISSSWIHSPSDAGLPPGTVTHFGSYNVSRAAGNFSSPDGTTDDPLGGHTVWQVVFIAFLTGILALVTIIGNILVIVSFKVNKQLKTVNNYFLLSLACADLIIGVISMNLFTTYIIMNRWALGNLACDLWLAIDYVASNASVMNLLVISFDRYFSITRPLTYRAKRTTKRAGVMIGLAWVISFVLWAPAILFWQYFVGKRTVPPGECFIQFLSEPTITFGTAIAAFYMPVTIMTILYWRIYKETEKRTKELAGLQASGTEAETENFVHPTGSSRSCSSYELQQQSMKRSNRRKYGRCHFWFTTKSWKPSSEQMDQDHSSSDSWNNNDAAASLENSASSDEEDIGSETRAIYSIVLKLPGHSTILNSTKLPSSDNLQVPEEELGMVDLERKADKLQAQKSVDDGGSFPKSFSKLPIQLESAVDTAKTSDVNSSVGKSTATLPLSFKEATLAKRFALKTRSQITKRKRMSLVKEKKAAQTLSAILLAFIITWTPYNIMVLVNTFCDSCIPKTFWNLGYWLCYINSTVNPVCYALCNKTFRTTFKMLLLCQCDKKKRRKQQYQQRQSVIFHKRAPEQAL

Row | Compound | IC50 [nM]
1 | O=C(C[N+]12CCC(CC1)[C@@H](OC(=O)C1(c3ccccc3)CCCCCC1)C2)NCCCc1ccccc1 [Example 37, (3R)-1-{2-Oxo-2-[(3-phenylpropyl)amino]ethyl}-3-{[(1-phenylcycloheptyl)carbonyl]oxy}-1-azoniabicyclo[2.2.2]octane Bromide] | 2 to 10
2 | O=C(C[N+]12CCC(CC1)[C@@H](OC(=O)C1(c3ccccc3)CCCCCC1)C2)Nc1ccc(Cl)nn1 [Example 21, (3R)-1-{2-[(6-Chloropyridazin-3-yl)amino]-2-oxoethyl}-3-{[(1-phenylcycloheptyl)carbonyl]oxy}-1-azoniabicyclo[2.2.2]octane Bromide] | < 2
3 | O=C(O[C@H]1C[N+]2(CCOc3ccccc3)CCC1CC2)C1(c2ccccc2)CCCCCC1 [Example 11, (3R)-1-(2-Phenoxyethyl)-3-{[(1-phenylcycloheptyl)carbonyl]oxy}-1-azoniabicyclo[2.2.2]octane bromide] | < 2
4 | O=C(O[C@H]1C[N+]2(Cc3ccccc3)CCC1CC2)C1(c2ccccc2)CCCCCC1 [Example 6, (3R)-1-Benzyl-3-{[(1-phenylcycloheptyl)carbonyl]oxy}-1-azoniabicyclo[2.2.2]octane Bromide] | > 10
5 | Cc1cc(NC(=O)C[N+]23CCC(CC2)[C@@H](OC(=O)C2(c4ccccc4)CCCCCC2)C3)on1 [Example 39, (3R)-1-{2-[(3-Methylisoxazol-5-yl)amino]-2-oxoethyl}-3-{[(1-phenylcycloheptyl)carbonyl]oxy}-1-azoniabicyclo[2.2.2]octane Bromide] | < 2
6 | COc1cccc(CC[N+]23CCC(CC2)[C@@H](OC(=O)C2(c4ccccc4)CCCCCC2)C3)c1 [Example 24, (3R)-1-[2-(3-Methoxyphenyl)ethyl]-3-{[(1-phenylcycloheptyl)carbonyl]oxy}-1-azoniabicyclo[2.2.2]octane Bromide] | < 2
7 | O=C(O[C@H]1C[N+]2(CCc3ccc4ccccc4c3)CCC1CC2)C1(c2ccccc2)CCCCCC1 [Example 23, (3R)-1-[2-(2-Naphthyl)ethyl]-3-{[(1-phenylcycloheptyl)carbonyl]oxy}-1-azoniabicyclo[2.2.2]octane Bromide] | < 2
8 | O=C(O[C@H]1C[N+]2(Cc3ccc(F)c(F)c3)CCC1CC2)C1(c2ccccc2)CCCCCC1 [Example 8, (3R)-1-(3,4-Difluorobenzyl)-3-{[(1-phenylcycloheptyl)carbonyl]oxy}-1-azoniabicyclo[2.2.2]octane Bromide] | > 10
9 | O=C(C[N+]12CCC(CC1)[C@@H](OC(=O)C1(c3ccccc3)CCCCCC1)C2)Nc1cccc(F)c1 [Example 22, (3R)-1-{2-[(3-Fluorophenyl)amino]-2-oxoethyl}-3-{[(1-phenylcycloheptyl)carbonyl]oxy}-1-azoniabicyclo[2.2.2]octane Bromide] | < 2
10 | Cc1cnc(NC(=O)C[N+]23CCC(CC2)[C@@H](OC(=O)C2(c4ccccc4)CCCCCC2)C3)cn1 [Example 33, (3R)-1-{2-[(5-Methylpyrazin-2-yl)amino]-2-oxoethyl}-3-{[(1-phenylcycloheptyl)carbonyl]oxy}-1-azoniabicyclo[2.2.2]octane Bromide] | < 2
11 | C[N+]12CCC(CC1)[C@@H](OC(=O)C1(c3ccccc3)CCCCCC1)C2 [Example 2, (3R)-1-Methyl-3-{[(1-phenylcycloheptyl)carbonyl]oxy}-1-azoniabicyclo[2.2.2]octane Iodide] | 2 to 10
12 | O=C(C[N+]12CCC(CC1)[C@@H](OC(=O)C1(c3ccccc3)CCCCCC1)C2)Nc1cncc(Cl)n1 [Example 31, (3R)-1-{2-[(6-Chloropyrazin-2-yl)amino]-2-oxoethyl}-3-{[(1-phenylcycloheptyl)carbonyl]oxy}-1-azoniabicyclo[2.2.2]octane Bromide] | < 2
13 | COc1cccc(C[N+]23CCC(CC2)[C@@H](OC(=O)C2(c4ccccc4)CCCCCC2)C3)c1 [Example 10, (3R)-1-(3-Methoxybenzyl)-3-{[(1-phenylcycloheptyl)carbonyl]oxy}-1-azoniabicyclo[2.2.2]octane Bromide] | 2 to 10
14 | O=C(C[N+]12CCC(CC1)[C@@H](OC(=O)C1(c3ccccc3)CCCCCC1)C2)c1cccc(F)c1 [Example 19, (3R)-1-[2-(3-Fluorophenyl)-2-oxoethyl]-3-{[(1-phenylcycloheptyl)carbonyl]oxy}-1-azoniabicyclo[2.2.2]octane Bromide] | < 2
15 | O=C1c2ccccc2C(=O)N1CC[N+]12CCC(CC1)[C@@H](OC(=O)C1(c3ccccc3)CCCCCC1)C2 [Example 30, (3R)-1-[2-(1,3-Dioxo-1,3-dihydro-2H-isoindol-2-yl)ethyl]-3-{[(1-phenylcycloheptyl)carbonyl]oxy}-1-azoniabicyclo[2.2.2]octane Bromide] | > 10
16 | O=C(O[C@H]1C[N+]2(Cc3ccc(C(F)(F)F)o3)CCC1CC2)C1(c2ccccc2)CCCCCC1 [Example 9, (3R)-3-{[(1-Phenylcycloheptyl)carbonyl]oxy}-1-{[5-(trifluoromethyl)-2-furyl]methyl}-1-azoniabicyclo[2.2.2]octane Bromide] | > 10
17 | O=C(C[N+]12CCC(CC1)[C@@H](OC(=O)C1(c3ccccc3)CCCCCC1)C2)N1CCOCC1 [Example 15, (3R)-1-(2-Morpholin-4-yl-2-oxoethyl)-3-{[(1-phenylcycloheptyl)carbonyl]oxy}-1-azoniabicyclo[2.2.2]octane Bromide] | 2 to 10
18 | O=C(O[C@H]1C[N+]2(CCCOc3ccccc3)CCC1CC2)C1(c2ccccc2)CCCCCC1 [Example 3, (3R)-1-(3-Phenoxypropyl)-3-{[(1-phenylcycloheptyl)carbonyl]oxy}-1-azoniabicyclo[2.2.2]octane Bromide] | < 2
19 | O=C(O[C@H]1C[N+]2(Cc3cccc(OC(F)(F)F)c3)CCC1CC2)C1(c2ccccc2)CCCCCC1 [Example 7, (3R)-3-{[(1-Phenylcycloheptyl)carbonyl]oxy}-1-[3-(trifluoromethoxy)benzyl]-1-azoniabicyclo[2.2.2]octane Bromide] | > 10
20 | N#Cc1ccc(CC[N+]23CCC(CC2)[C@@H](OC(=O)C2(c4ccccc4)CCCCCC2)C3)cc1 [Example 29, (3R)-1-[2-(4-Cyanophenyl)ethyl]-3-{[(1-phenylcycloheptyl)carbonyl]oxy}-1-azoniabicyclo[2.2.2]octane Bromide] | 2 to 10
21 | O=C(O)C[N+]12CCC(CC1)[C@@H](OC(=O)C1(c3ccccc3)CCCCCC1)C2 [Example 34, (3R)-1-(Carboxymethyl)-3-{[(1-phenylcycloheptyl)carbonyl]oxy}-1-azoniabicyclo[2.2.2]octane Bromide] | > 10
22 | O=C(O[C@H]1C[N+]2(Cc3ccc(F)cc3)CCC1CC2)C1(c2ccccc2)CCCCCC1 [Example 5, (3R)-1-(4-Fluorobenzyl)-3-{[(1-phenylcycloheptyl)carbonyl]oxy}-1-azoniabicyclo[2.2.2]octane Bromide] | > 10
23 | O=C(C[N+]12CCC(CC1)[C@@H](OC(=O)C1(c3cccs3)CCCCCC1)C2)Nc1ccon1 [Example 13, (3R)-1-[2-(Isoxazol-3-ylamino)-2-oxoethyl]-3-({[1-(2-thienyl)cycloheptyl]carbonyl}oxy)-1-azoniabicyclo[2.2.2]octane Bromide] | < 2
24 | O=C(C[N+]12CCC(CC1)[C@@H](OC(=O)C1(c3ccccc3)CCCCCC1)C2)N1CCCC1 [Example 14, (3R)-1-(2-Oxo-2-pyrrolidin-1-ylethyl)-3-{[(1-phenylcycloheptyl)carbonyl]oxy}-1-azoniabicyclo[2.2.2]octane Bromide] | 2 to 10
25 | Cc1cc(NC(=O)C[N+]23CCC(CC2)[C@@H](OC(=O)C2(c4ccccc4)CCCCCC2)C3)no1 [Example 20, (3R)-1-{2-[(5-Methylisoxazol-3-yl)amino]-2-oxoethyl}-3-{[(1-phenylcycloheptyl)carbonyl]oxy}-1-azoniabicyclo[2.2.2]octane Bromide] | < 2
26 | O=C(C[N+]12CCC(CC1)[C@@H](OC(=O)C1(c3ccccc3)CCCCCC1)C2)NCCOc1ccccc1 [Example 18, (3R)-1-{2-Oxo-2-[(2-phenoxyethyl)amino]ethyl}-3-{[(1-phenylcycloheptyl)carbonyl]oxy}-1-azoniabicyclo[2.2.2]octane Bromide] | < 2

Same assay, conditions: pIC50

Row | Compound | IC50 [nM]
27 | C[N+]12CCC(CC1)[C@@H](OC(=O)C1(c3ccccc3)CCCCCC1)C2 [Example 2, (3R)-1-Methyl-3-{[(1-phenylcycloheptyl)carbonyl]oxy}-1-azoniabicyclo[2.2.2]octane Iodide] | 3.16
28 | COc1cccc(C[N+]23CCC(CC2)[C@@H](OC(=O)C2(c4ccccc4)CCCCCC2)C3)c1 [Example 10, (3R)-1-(3-Methoxybenzyl)-3-{[(1-phenylcycloheptyl)carbonyl]oxy}-1-azoniabicyclo[2.2.2]octane Bromide] | 3.16
29 | O=C(O[C@H]1C[N+]2(CCCOc3ccccc3)CCC1CC2)C1(c2ccccc2)CCCCCC1 [Example 3, (3R)-1-(3-Phenoxypropyl)-3-{[(1-phenylcycloheptyl)carbonyl]oxy}-1-azoniabicyclo[2.2.2]octane Bromide] | 0.0501

Same assay, conditions: pIC50 of comparative compounds containing a cyclohexyl (C6) ring in place of cycloheptyl (C7)

Row | Compound | IC50 [nM]
30 | O=C(C[N+]12CCC(CC1)[C@@H](OC(=O)C1(c3ccccc3)CCCCC1)C2)Nc1cnccn1 [compound 6, (3R)-1-[2-Oxo-2-(pyrazin-2-ylamino)ethyl]-3-{[(1-phenylcyclohexyl)carbonyl]oxy}-1-azoniabicyclo[2.2.2]octane Bromide, reference compound] | 0.2

Same assay, conditions: pIC50 of comparative compounds containing a cyclooctyl (C8) ring in place of cycloheptyl (C7)

Row | Compound | IC50 [nM]
31 | O=C(C[N+]12CCC(CC1)[C@@H](OC(=O)C1(c3ccccc3)CCCCCCC1)C2)Nc1cnccn1 [compound 9, (3R)-1-[2-Oxo-2-(pyrazin-2-ylamino)ethyl]-3-{[(1-phenylcyclooctyl)carbonyl]oxy}-1-azoniabicyclo[2.2.2]octane Bromide, reference compound] | 0.316
32 | C[N+]12CCC(CC1)[C@@H](OC(=O)C1(c3ccccc3)CCCCCCC1)C2 [compound 8, (3R)-1-Methyl-3-{[(1-phenylcyclooctyl)carbonyl]oxy}-1-azoniabicyclo[2.2.2]octane Iodide, reference compound] | 39.8

Same assay, conditions: pIC50 of comparative compounds containing a cyclopentyl (C5) ring in place of cycloheptyl (C7)

Row | Compound | IC50 [nM]
33 | O=C(C[N+]12CCC(CC1)[C@@H](OC(=O)C1(c3ccccc3)CCCC1)C2)Nc1cnccn1 [compound 3, (3R)-1-[2-Oxo-2-(pyrazin-2-ylamino)ethyl]-3-{[(1-phenylcyclopentyl)carbonyl]oxy}-1-azoniabicyclo[2.2.2]octane Bromide, reference compound] | 0.316
34 | C[N+]12CCC(CC1)[C@@H](OC(=O)C1(c3ccccc3)CCCC1)C2 [Comparative Example 2, (3R)-1-Methyl-3-{[(1-phenylcyclopentyl)carbonyl]oxy}-1-azoniabicyclo[2.2.2]octane Iodide, reference compound] | 39.8

Same assay, conditions: pIC50 of cycloheptyl (C7) compound

Row | Compound | IC50 [nM]
35 | C[N+]12CCC(CC1)[C@@H](OC(=O)C1(c3ccccc3)CCCCCC1)C2 [Example 2, (3R)-1-Methyl-3-{[(1-phenylcycloheptyl)carbonyl]oxy}-1-azoniabicyclo[2.2.2]octane Iodide] | 3.16
